Assay results as given in patent US20230218721A1, “INCRETIN ANALOGUE, PREPARATION METHOD THEREFOR, AND USE THEREOF” (ZHEJIANG DOER BIOLOGICS CO., LTD., priority 2020, published 2023).
Read-outs that look alike come from different tables or passages of the source. Blank lines part the entries; values can stand above or below the compound they belong to. Starred links: 1 amine or outer side, 2 acyl side, 3 side chain; linkers in the order of their positions; H or OH if unused. Residues, ends and D or L forms follow the SMILES beside them. Groups on a side chain read outwards from the residue. *: point of attachment. γGlu = O=C(O)[C@H](CCC(=O)[*:2])N[*:1]; Palmitoyl = CCCCCCCCCCCCCCCC(=O)*

Assays:
[1] = cited from earlier work
[2] = format: in vitro ADME, rat
Experimental: In this example, the serum stability of the incretin analogue […] was determined by the following steps: (1) The incretin analogues […] and the control (Dulaglutide) were formulated with 5 mM Tris-HCl, pH 8.5, and 0.02% TWEEN-80 solution into solutions at a concertration of 1.0 mg/ml, which were sterilized and filtered (0.22 μm, Millipore SLGP033RB), then diluted 10-fold with rat serum, mixed evenly and divided into sterile centrifuge tubes; […] (3) The GLP-1R agonist activity was detected.

GLP-1R = target: T1, GLP-1R (Homo sapiens, UniProt P43220); assay: GLP-1R agonist activity assay, luciferase reporter gene in stably transfected CHO-K1 cells; format: cell-based; conditions: CRE-luciferase reporter, stimulation for 6 h
T1 construct: expressed in transfected cells
Text: GLP-1R agonist activity was detected using luciferase reporter gene assay (Jonathan W Day et, al.: Nat Chem Biol. 2009 October; 5 (10): 749-57). Humanized GLP-1R gene was cloned into mammalian cell expression plasmid pCDNA3.1 to construct recombinant expression plasmid pCDNA3.1-GLP-1R, and at the same time, luciferase full-length gene was cloned into pCRE plasmid to get pCRE-Luc recombinant plasmid. The pcDNA3.1-GLP-1R and pCRE-Luc plasmids were transfected into CHO-K1 cells at a molar ratio of 1:10, and the stably transfected cell strains were screened. Cells were cultured in a 9-cm cell culture dish with DMEM/F12 medium containing 10% FBS and 300 μg/ml G418. When the confluence reached about 90%, the culture supernatant was discarded. […] 2 ml DMEM/F12 medium containing 10% FBS and 300 μg/ml G418 was added for resuspension, and the number of cells was counted. […] Dulaglutide (Trade name: Trulicity®)) were diluted with DMEM/F12 medium containing 1% BSA to a series of defined concentration, 27 added into cell culture wells at 100 μl/well, and detected after stimulation for 6 h. The samples were detected according to the specification of Lucifersae reporter kit (Ray Biotech, 29 Cat: 68-LuciR-5200). […]

T1 sequence (P43220 24-463): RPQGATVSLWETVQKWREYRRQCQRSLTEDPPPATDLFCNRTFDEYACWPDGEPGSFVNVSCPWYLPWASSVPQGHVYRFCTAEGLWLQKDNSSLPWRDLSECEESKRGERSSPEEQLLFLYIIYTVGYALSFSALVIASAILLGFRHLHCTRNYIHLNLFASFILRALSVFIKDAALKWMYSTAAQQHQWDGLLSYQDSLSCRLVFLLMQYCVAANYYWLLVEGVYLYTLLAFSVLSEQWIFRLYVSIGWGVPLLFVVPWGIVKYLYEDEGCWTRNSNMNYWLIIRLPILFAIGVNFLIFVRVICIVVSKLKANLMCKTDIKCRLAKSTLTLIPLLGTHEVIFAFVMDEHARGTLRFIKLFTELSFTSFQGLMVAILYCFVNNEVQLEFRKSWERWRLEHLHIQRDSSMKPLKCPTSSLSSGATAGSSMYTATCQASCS

Compound: Semeglutide
average clinical weight loss ([1]; 0.5 mg treatment group): 4.2 kg
average clinical weight loss ([1]; 1.0 mg treatment group): 5.5 kg

Compound: CCCCCCCCCCCCCCCC(=O)N[C@@H](CCC(=O)NCCCC[C@H](NC(=O)[C@H](CC(=O)O)NC(=O)[C@H](CO)NC(=O)[C@@H](NC(=O)[C@H](Cc1ccccc1)NC(=O)[C@@H](NC(=O)CNC(=O)[C@H](CCC(=O)O)NC(=O)[C@H](CO)NC(=O)[C@@H](N)Cc1ccc(O)cc1)[C@@H](C)O)[C@@H](C)O)C(=O)N[C@@H](CO)C(=O)N[C@@H](CCCCN)C(=O)N[C@@H](Cc1ccc(O)cc1)C(=O)N[C@@H](CC(C)C)C(=O)N[C@@H](CC(=O)O)C(=O)N[C@@H](CO)C(=O)N[C@@H](CCC(N)=O)C(=O)N[C@@H](C)C(=O)N[C@@H](C)C(=O)N[C@@H](CCC(N)=O)C(=O)N[C@@H](CC(=O)O)C(=O)N[C@@H](Cc1ccccc1)C(=O)N[C@H](C(=O)N[C@@H](CCC(N)=O)C(=O)N[C@@H](Cc1c[nH]c2ccccc12)C(=O)N[C@@H](CC(C)C)C(=O)N[C@@H](CC(C)C)C(=O)N[C@@H](C)C(=O)NCC(=O)NCC(=O)N1CCC[C@H]1C(=O)N[C@@H](CO)C(=O)N[C@@H](CO)C(=O)NCC(=O)N[C@@H](C)C(=O)N1CCC[C@H]1C(=O)N1CCC[C@H]1C(=O)N1CCC[C@H]1C(=O)N[C@@H](CO)C(N)=O)C(C)C)C(=O)O [P3YELAN] (H-YSEGTFTSDK([γGlu-Palmitoyl])SKYLDSQAAQDFVQWLLAGGPSSGAPPPS-NH2)
residual GLP-1R agonist activity over time in serum [2]: maintains a higher GLP-1R agonist activity in a long time

EC50 (GLP-1R): 0.01 nM
Compound: Dulaglutide
